Here are results for 15 molecules from ChEMBL document CHEMBL1139811 (Bioorg Med Chem Lett, 2007).

This experiment addresses T1, Mycobacterial beta-ketoacyl-[acyl-carrier-protein] synthase III (Mycobacterium tuberculosis, UniProt P9WNG3).
T1 sequence (P9WNG3 whole entry): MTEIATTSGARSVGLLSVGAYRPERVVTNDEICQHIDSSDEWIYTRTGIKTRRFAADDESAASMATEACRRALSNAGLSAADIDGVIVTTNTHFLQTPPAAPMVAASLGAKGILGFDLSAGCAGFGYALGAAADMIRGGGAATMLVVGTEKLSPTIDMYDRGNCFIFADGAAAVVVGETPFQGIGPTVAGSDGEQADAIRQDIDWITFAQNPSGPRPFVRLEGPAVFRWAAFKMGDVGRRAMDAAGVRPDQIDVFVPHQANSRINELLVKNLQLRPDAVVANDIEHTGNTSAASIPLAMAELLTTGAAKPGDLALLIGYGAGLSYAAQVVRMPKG
In words: Inhibition of Mycobacterium tuberculosis FabH.

Each structure is given as a SMILES string.

On to `CC(=O)c1cccc(-c2ccc(CC3(C)SC(=O)C(C)=C3O)cc2)c1` (stereo not given), for which the IC50 (as a rule, the concentration that gives 50% inhibition) came out at 150 µM.

Molecule `CC1=C(O)C(C)(Cc2ccc(-c3cc(F)cc(F)c3)cc2)SC1=O` (stereo not given) showed an IC50 of 135 µM.

In the case of `CC(=O)c1ccc(-c2ccc(CC3(C)SC(=O)C(C)=C3O)cc2)cc1` (stereo not given), the midpoint of inhibition, the IC50, lay at 54 µM.

For the molecule `CC1=C(O)C(C)(Cc2ccc(-c3ccc(C(=O)O)cc3)cc2)SC1=O` (stereo not given), half-maximal inhibition (IC50) required 7 µM.

`COC(=O)c1ccc(-c2ccc(CC3(C)SC(=O)C(C)=C3O)cc2)cc1` (stereo not given): the IC50 was found to be 3 µM.

`CC1=C(O)C(C)(Cc2ccc(Oc3ccccc3)cc2)SC1=O` (stereo not given) yielded an IC50 of 15 µM.

In turn, `CC1=C(O)C(C)(Cc2ccc(-c3ccc(F)cc3)cc2)SC1=O` (stereo not given) returned a 50% inhibitory concentration (IC50) of 105 µM.

In turn, `CC1=C(O)C(C)(Cc2ccc(-c3ccc(-c4ccccc4)cc3)cc2)SC1=O` (stereo not given) displayed an IC50 of 68 µM.

In the case of `CC(=O)c1ccc(-c2ccc(CC3(C)SC(=O)C(C)=C3O)cc2)s1` (stereo not given), the midpoint of inhibition, the IC50, lay at 200 µM.

`CC1=C(O)C(C)(Cc2ccc(-c3ccc(C)s3)cc2)SC1=O` (stereo not given) gave an IC50 of 86 µM.

As for `CC1=C(O)C(C)(Cc2ccc(-c3ccc(Cl)cc3)cc2)SC1=O` (stereo not given), the IC50 stood at 130 µM.

As to `CC1=C(O)C(C)(Cc2ccc(-c3ccc(C(N)=O)cc3)cc2)SC1=O` (stereo not given), the IC50 turned out to be 4 µM.

With `CC1=C(O)C(C)(Cc2ccc(-c3cccc(Cl)c3)cc2)SC1=O` (stereo not given), half-maximal inhibition (IC50) was put at 156 µM.

`CC1=C(O)C(C)(Cc2ccc(C(=O)c3ccccc3)cc2)SC1=O` (stereo not given): inhibition was half-maximal at 283 µM (IC50).

As to `CC1=C(O)C(C)(Cc2ccc(-c3ccc(F)c(F)c3)cc2)SC1=O` (stereo not given), the IC50 was 207 µM.
